Patent US20170008888A1 (KYORIN PHARMACEUTICAL CO., LTD., priority 2014, published 2017)
One block for each compound: values may come before it.

Experiments:
[1] = system: collagen-induced arthritis mouse model; test: Collagen-induced arthritis (CIA) mouse model: in-life disease score, paw thickness; type: in vivo, mouse (DBA/1J); conditions: for change in group average disease score - mean, Day versus Day 21 (start of treatment): 60 mg/kg PO BID from D21
[2] = system: collagen-induced arthritis mouse model; test: Collagen-induced arthritis (CIA) mouse model: histopathology of tibiofemoral and tarsal/phalangeal joints; type: in vivo, mouse (DBA/1J)
[3] = system: human fetal lung fibroblasts (HFL-1); test: TGF-β-induced fibrotic response (α-SMA expression) in HFL-1; type: cell-based; conditions: HFL1, 2 ng/ml TGF-β1, 48 h, Western blot, read-out: Inhibition of α-SMA expression, EC50 (μM), HFL-1
Procedure: Nontransformed, human fetal lung fibroblasts (HFL-1) were obtained from ATCC (Manassas, Va.) and maintained in F12K media containing 10% (v/v) charcoal-dextran treated, heat inactivated FBS (Omega Scientific, Tarzana, Calif.). Primary lung fibroblasts isolated from a patient diagnosed with asthma were obtained from Lonza (Allendale, N.J.) and maintained in FGM-2 fibroblast growth medium (Lonza). Cells were seeded at a density to provide 50-60% confluence after an overnight incubation at 37° C. in a humidified atmosphere at 5% CO2. […] Protein content was determined using the Bio-Rad Dc Protein kit (Bio-Rad Laboratories, Hercules, Calif.), and normalized prior to adding an equal volume of 2× Laemmli sample buffer (Sigma). Proteins in the whole cell lysates were resolved via SDS-PAGE gel electrophoresis, and α-SMA was detected via Western blot analysis using a rabbit anti-human α-SMA polyclonal antibody (Abcam, Cambridge, Mass.). α-SMA signal was normalized to the signal of β-actin as detected using mouse anti-human […] antibody (Cell Signaling Technology). DyLight 680 and 800 conjugated secondary antibodies were used and the infrared signals were detected using the Odyssey Imaging System (LI-COR Biotechnology, Lincoln, Nebr.).

MV-4-11 cells = test: MV-4-11 proliferation EC50 assay (CellTiter-Glo); type: cell-based; conditions: Homo sapiens, MV4-11, 48 h, read-out: MV-4-11 proliferation EC50, ave. ± S.D.
Procedure: Human biphenotypic B myelomonocytic leukemia MV-4-11 cells (ATCC, Manassas, Va.) were treated with test compounds at 2e5 cells/ml in IMDM medium containing 10% (v/v) FBS (Life Technologies, Grand Island, N.Y.) and 1×Pen/Strep Amphotericin B (Lonza, Allendale, N.J.). Compounds were tested at 25 μM down by ⅓ in a 9 point serial dilution series. Cells were incubated for 48 h at 37° C. in a humidified atmosphere at 5% CO2. MV-4-11 cell proliferation was then indirectly determined via cellular ATP content using the CellTiter-Glo® Luminescent Cell Viability Assay (Promega, Madison, Wis.) as per the manufacturer's instructions. Briefly, experimental plates were equilibrated at room temperature for 30 minutes. An equal volume of CellTiter-Glo® reagent was added to each well and incubated for 15 minutes at room temperature. Luminescent signal was read using the Wallac 1420 Victor^2 multilabel microplate reader (Perkin Elmer, Waltham, Mass.). EC50 values were determined using GraphPad Prism software v5.04.

[4] = system: TLR4 signaling in primary human umbilical vein endothelial cells; test: Cytokine response to TLR4 agonism (LPS) in primary HUVEC (ELISA); type: cell-based
Procedure: In this example, the following commercially available inhibitors were tested:
The results were compared with test compound 61.
Pooled primary human umbilical vein endothelial cells (HUVEC) were obtained from Lonza (Allendale, N.J.) and maintained in either complete EGM-2 defined media (Lonza) or Medium 200 supplemented with Low Serum Growth Supplement (Life Technologies, Grand Island, N.Y.). Cells at low passage (<5) were seeded at 4e5 cells/ml and allowed to adhere overnight at 37° C. in a humidified atmosphere at 5% CO2. Cells were pre-treated with test compounds for 1 h prior to TLR2 or TLR4 stimulation. To test for the effects of TLR2 agonism, the TLR2 agonist peptide Pam3CysK4 (Santa Cruz Biotechnology, Dallas, Tex.) was used at 10 μg/ml. PHC-SKKK (Enzo Life Sciences, Farmingdale, N.Y.) served as the negative control peptide. To test for the effects of TLR4 agonism, LPS from E. coli 0111:B4 (EMD Millipore, Billerica, Mass.) was used at 100 ng/ml. Cells were incubated for 22 hr, after which the supernatant was collected and analyzed for cytokine concentrations by ELISA (Life Technologies). Absorbance at 450 nm was read using the Wallac 1420 Victor^2 multilabel microplate reader (Perkin Elmer, Waltham, Mass.).

[5] = Group 3 (n=10): 60 mg/kg PO BID D21-D42
[6] = Group 3: 60 mg/kg PO BID D21-D42

Compound: CCOc1cc(C(=O)N2CCC(N3CCCC3)CC2)ccc1Nc1cc2c(cn1)N(C)C(=O)c1ccccc1N2C [Compound 46, 3-(2-Ethoxy-4-(4-(pyrrolidin-1-yl)piperidine-1-carbonyl)phenylamino)-5,11-dimethyl-5H-benzo[e]pyrido[3,4-b][1,4]diazepin-10(11H)-one]
- change in group average disease score - mean, Day versus Day 21 (start of treatment) ([1]; Day 21): 0.0
- change in group average disease score - mean, Day versus Day 21 (start of treatment) ([1]; Day 24): 0.4
- change in group average disease score - mean, Day versus Day 21 (start of treatment) ([1]; Day 26): 1.3
- change in group average disease score - mean, Day versus Day 21 (start of treatment) ([1]; Day 28): 2.0
- change in group average disease score - mean, Day versus Day 21 (start of treatment) ([1]; Day 31): 2.1
- change in group average disease score - mean, Day versus Day 21 (start of treatment) ([1]; Day 33): 2.7
- change in group average disease score - mean, Day versus Day 21 (start of treatment) ([1]; Day 35): 2.4
- change in group average disease score - mean, Day versus Day 21 (start of treatment) ([1]; Day 37): 2.7
- change in group average disease score - mean, Day versus Day 21 (start of treatment) ([1]; Day 39): 2.8
- percent reduction in overall disease and total paw scores ([1]; treatment Day 21-42, Tofacitinib 15 mg/kg BID PO, doses in Table 28): about 55%
- histopathology of hind-limb joints (knee, paw/tarsal), in words ([2]; Day 42, H&E): nearly twice as effective as Tofacitinib at protecting the tarsal joints
- Animals with normal tarsal joints (% of total n in group) [2, 5]: 70%
- Number of animals with normal tarsal joints [2, 5]: 7
- Tibiofemoral joint score: cartilage erosion/ulceration [2, 6]: 12.5
- Tibiofemoral joint score: inflammation [2, 6]: 15.0
- Tibiofemoral joint score: periosteal proliferation/erosion [2, 6]: 3.8
- Tibiofemoral joint score: synovial hyperplasia [2, 6]: 3.0

- EC50 (MV-4-11 cells): 700 ± 50 nM
Compound: CCOc1cc(C(=O)N2CCC(N3CCN(C)CC3)CC2)ccc1Nc1cc2c(cn1)N(C)C(=O)c1ccccc1N2C [Compound 61]
- EC50 [3]: 0.75 to 2.3 µM
- G-CSF ([4]; 5 μM inhibitor, +100 ng/ml LPS): 14 ± 5 pg/mL
- IL-6 ([4]; 5 μM inhibitor, +100 ng/ml LPS): 113 ± 14 pg/mL
- IL-8 ([4]; 5 μM inhibitor, +100 ng/ml LPS, 22 hr): 1105 ± 25 pg/mL
- G-CSF ([4]; 5 μM inhibitor, No Stimulation): 0 ± 25 pg/mL
- IL-6 ([4]; 5 μM inhibitor, No Stimulation): 7 ± 1 pg/mL
- G-CSF response to TLR4 agonism, in words ([4]; summary of Table 23): reduced the G-CSF response
- IL-6 response, in words ([4]; summary of Table 24): reduced
